Test results taken from patent US20090221829A1 (priority 2005, published 2009).
Read-outs that look alike come from different tables or passages of the source.

Key:
[1] = tested on: Candida albicans(KCTC 1940), Aspergillus niger (ATCC 9642) and Saccharomyces cerevisiae; experiment: Relative antifungal activity by agar dilution method (vs Miconazole); format: cell-based;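 note: scores 5 to 7 mean a lower fungicidal concentration than Miconazole so higher is more potent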
Source text: Novel compounds represented by the above chemical formula (I), and the relative activities in accordance with the agar dilution method in Sabouraud dextrose agar media, Czapek agar media and Yeast Extract-Peptone-Dextrose agar media for Candida albicans(KCTC 1940), Aspergillus niger (ATCC 9642) and Saccharomyces cerevisiae are described respectively in following Table 1.

various kinds of Candida = experiment: MIC (Minimal Inhibitory Concentration) data; format: cell-based; conditions: unit assumed
[2] = target: sterol-24-methyl transferase (Candida albicans, UniProt O74198); format: biochemical; conditions: in vitro, read-out: Relative Activity (IC50 class)
Source text: Moreover, the relative activity for sterol-24-methyl transferase of the above compound in Table 11 is described in Table 13.

[3] = Oral toxicity test (general symptoms, weight change, lethal case); format: in vivo, rats (SD); conditions: for LD50: SD, rat, in vivo, 1000 mg/kg, rats, oral, read-out: Acute toxicity LD50; for general symptom / lethal case / weight change: oral, 1,000 mg/kg, suspended in propylene glycol, SD rats
Description: Meanwhile, the toxicity test of the compound in table II of the present invention was performed using […]. The compound was suspended in propylene glycol. The resulting suspension was medicated respectively on 6 female rats and 5 male rats (SD) of which age are 5 weeks, via oral after 12 hours starvation. The general symptoms, weight change and lethal case of the above rats were investigated.
In cases of the tests of the compounds (Compound No. 12, 119, 134, 148, 150)(delivery of 1,000 mg/kg), the general symptom and weight change were normal and the lethal case was not observed.

salmonella typhimurium = experiment: Bacterial reverse mutation test (Ames test); format: cell-based
[4] = tested on: cultured lung cells derived from chinese hamster; experiment: Chromosome aberration test; format: cell-based
Micronucleus test = format: in vivo; conditions: for Genetic toxicity Nucleus test: male ICR mice; for micronucleus test result: mouse, in vivo
[5] = agar dilution method, fungicidal concentration relative to control drug Miconazole (=4)
[6] = antifungal activity relative to Miconazole, agar dilution

sterol-24-methyl transferase, sequence (O74198 whole entry): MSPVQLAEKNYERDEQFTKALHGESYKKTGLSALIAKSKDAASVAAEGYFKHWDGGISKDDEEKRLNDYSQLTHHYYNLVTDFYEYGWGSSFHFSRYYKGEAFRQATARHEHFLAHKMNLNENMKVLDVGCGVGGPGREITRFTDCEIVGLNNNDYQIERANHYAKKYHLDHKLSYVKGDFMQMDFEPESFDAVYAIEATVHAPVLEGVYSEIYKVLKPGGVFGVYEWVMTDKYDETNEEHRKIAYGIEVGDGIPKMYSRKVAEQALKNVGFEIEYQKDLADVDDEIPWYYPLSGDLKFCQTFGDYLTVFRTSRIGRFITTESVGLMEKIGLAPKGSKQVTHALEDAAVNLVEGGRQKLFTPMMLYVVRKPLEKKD

With `CCCCCCCCCCCC1=[N+](Cc2ccc(N)cc2)CCc2cc(OC)c(OC)cc21.Cl.[Cl-]` [Compound No. 121, 3,4-dihydro-6,7-dimethoxy-2-(4-ammoniumphenyl)methyl-1-undecylisoquinolinium dichloride] the “Relative Activity” value [1, 5] was 2, the MIC (various kinds of Candida; C. albicans ATCC 11651) was 3.12 µg/mL and the MIC (various kinds of Candida; C. albicans ATCC 28838) was 0.78 µg/mL. It also gave an MIC (various kinds of Candida; C. albicans IFO 1385) of 1.56 µg/mL, an MIC (various kinds of Candida; C. albicans OY-003) of 3.12 µg/mL and an MIC (various kinds of Candida; C. albicans OY-019) of 3.12 µg/mL. It also gave an MIC (various kinds of Candida; C. albicans U.K) of 3.12 µg/mL, an MIC (various kinds of Candida; C. glabrata) of 1.56 µg/mL and an MIC (various kinds of Candida; C. glulliermondi) of 0.78 µg/mL. The MIC (various kinds of Candida; C. krusei (KCTC7273)) was 1.56 µg/mL, the MIC (various kinds of Candida; C. parapsilosis) was 1.56 µg/mL and the IC50 [2] was 5 to 50 µM.
In the case of `COc1cc2cc[n+](Cc3cccc(OC)c3OCc3c(F)c(F)c(C(F)(F)F)c(F)c3F)c(CCc3ccc(C(C)(C)C)cc3)c2cc1OC.[Cl-]` [Compound No. 151, 1-(2-(4-t-butylphenyl))ethyl-2-(2-(2,3,5,6-tetrafluoro-4-trifluoromethylbenzyloxy)-3-methoxyphenyl)methyl-6,7-dimethoxyisoquinolinium chloride], the “Relative Activity” value [1, 6] is reported as 1, the MIC (various kinds of Candida; C. albicans ATCC 11651) is reported as 3.12 µg/mL and the MIC (various kinds of Candida; C. albicans ATCC 28838) is reported as 3.12 µg/mL. For the same molecule, the MIC (various kinds of Candida; C. albicans IFO 1385) was 6.25 µg/mL, the MIC (various kinds of Candida; C. albicans OY-003) was 1.56 µg/mL and the MIC (various kinds of Candida; C. albicans OY-019) was 3.12 µg/mL. The MIC (various kinds of Candida; C. albicans U.K) was 1.56 µg/mL, the MIC (various kinds of Candida; C. glabrata) was 3.25 µg/mL and the MIC (various kinds of Candida; C. glulliermondi) was 1.56 µg/mL. It also gave an MIC (various kinds of Candida; C. krusei (KCTC7273)) of 1.56 µg/mL, an MIC (various kinds of Candida; C. parapsilosis) of 12.5 µg/mL and an IC50 [2] of less than 5 µM.
For `CCCCCCCCCCCC1=[N+](c2ccc(C(C)(C)C)cc2)CCc2cc(CNC(=O)OCC)ccc21.[Br-]` [Compound No. 118, ethyl 3,4-dihydro-2-(4-t-butylphenyl)-1-undecylisoquinolinium-6-ylmethylcabamate bromide], the “Relative Activity” value [1, 5] was 2 and the IC50 [2] was 5 to 50 µM.
With `CCCCCCCCCCCC1=[N+](Cc2ccc(NC(=O)OC(C)(C)C)cc2)CCc2cc(OC)c(OC)cc21.[Cl-]` [Compound No. 120, 2-(4-t-butylalcoholcarbonylaminophenyl)methyl-3,4-dihydro-6,7-dimethoxy-1-undecylisoquinolinium chloride] the MIC (various kinds of Candida; C. albicans ATCC 11651) was 1.56 µg/mL, the MIC (various kinds of Candida; C. albicans ATCC 28838) was 1.56 µg/mL and the MIC (various kinds of Candida; C. albicans IFO 1385) was 3.12 µg/mL. It also gave an MIC (various kinds of Candida; C. albicans OY-003) of 1.56 µg/mL, an MIC (various kinds of Candida; C. albicans OY-019) of 3.12 µg/mL and an MIC (various kinds of Candida; C. albicans U.K) of 1.56 µg/mL. It also gave an MIC (various kinds of Candida; C. glabrata) of 6.25 µg/mL, an MIC (various kinds of Candida; C. glulliermondi) of 3.12 µg/mL and an MIC (various kinds of Candida; C. krusei (KCTC7273)) of 1.56 µg/mL. For the same molecule, the MIC (various kinds of Candida; C. parapsilosis) was 3.12 µg/mL and the IC50 [2] was less than 5 µM.
In the case of `CCCCCCCCOc1c(C[N+]2=C(CCc3ccc(C(C)(C)C)cc3)c3cc(OC)c(OC)cc3CC2)cccc1OC` [Compound No. 134, 1-(2-(4-t-butylphenyl))ethyl-2-(2-octyloxy-3-methoxyphenyl)methyl-3,4-dihydro-6,7-dimethoxy isoquinolinium chloride], the “Relative Activity” value [1, 5] is reported as 1, the MIC (various kinds of Candida; C. albicans ATCC 11651) is reported as 3.12 µg/mL and the MIC (various kinds of Candida; C. albicans ATCC 28838) is reported as 1.56 µg/mL. It also gave an MIC (various kinds of Candida; C. albicans IFO 1385) of 3.12 µg/mL, an MIC (various kinds of Candida; C. albicans OY-003) of 1.56 µg/mL and an MIC (various kinds of Candida; C. albicans OY-019) of 1.56 µg/mL. It also gave an MIC (various kinds of Candida; C. albicans U.K) of 1.56 µg/mL, an MIC (various kinds of Candida; C. glabrata) of 3.12 µg/mL and an MIC (various kinds of Candida; C. glulliermondi) of 1.56 µg/mL. For the same molecule, the MIC (various kinds of Candida; C. krusei (KCTC7273)) was 3.12 µg/mL, the MIC (various kinds of Candida; C. parapsilosis) was 6.25 µg/mL and the LD50 ([3]; female) was greater than 1000 mg/kg. The LD50 ([3]; male) was greater than 1200 mg/kg, the general symptom [3] was “normal” and the lethal case [3] was “not observed”. The weight change [3] was “normal”, the “Genetic toxicity AMES test” value (salmonella typhimurium) was “negative” and the “bacterial reverse mutation test (Ames test) result” value (salmonella typhimurium) was “negative”. For the same molecule, the “Genetic toxicity Chromosome abmormality test” value [4] was “negative”, the “chromosome aberration test result” value [4] was “negative” and the “Genetic toxicity Nucleus test” value (Micronucleus test) was “negative”. For the same molecule, the micronucleus test result (Micronucleus test) was “negative”.
For `CCCCCCCCCCCC1=[N+](Cc2ccc(C(C)(C)C)cc2)CCc2cc3c(cc21)oc(=O)n3C.[Br-]` [Compound No. 115, 7,8-dihydro-1-methyl-6-(4-t-butylphenyl)methyl-5-undecyloxazolo[4,5-g]isoquinolinium-2 (1H)-one bromide], the “Relative Activity” value [1, 5] was 2 and the IC50 [2] was 5 to 50 µM.
For `CCCCCCCCOc1c(C[n+]2ccc3cc(OC)c(OC)cc3c2CCc2ccc(C(C)(C)C)cc2)cccc1OC` [Compound No. 148, 1-(2-(4-t-butylphenyl))ethyl-2-(2-octyloxy)-3-dimethoxyphenyl)methyl-6,7-dimethoxyisoquinolinium chloride], the “Relative Activity” value [1, 6] was 1, the MIC (various kinds of Candida; C. albicans ATCC 11651) was 1.56 µg/mL and the MIC (various kinds of Candida; C. albicans ATCC 28838) was 1.56 µg/mL. For the same molecule, the MIC (various kinds of Candida; C. albicans IFO 1385) was 1.56 µg/mL, the MIC (various kinds of Candida; C. albicans OY-003) was 1.56 µg/mL and the MIC (various kinds of Candida; C. albicans OY-019) was 1.56 µg/mL. The MIC (various kinds of Candida; C. albicans U.K) was 1.56 µg/mL, the MIC (various kinds of Candida; C. albicnas ATCC 10231) was 0.78 µg/mL and the MIC (various kinds of Candida; C. glabrata) was 3.12 µg/mL. It also gave an MIC (various kinds of Candida; C. glulliermondi) of 1.56 µg/mL, an MIC (various kinds of Candida; C. krusei (KCTC7273)) of 1.56 µg/mL and an MIC (various kinds of Candida; C. parapsilosis) of 3.12 µg/mL. The LD50 ([3]; female) was greater than 1200 mg/kg, the LD50 ([3]; male) was greater than 1500 mg/kg and the general symptom [3] was “normal”. The lethal case [3] was “not observed”, the weight change [3] was “normal” and the “Genetic toxicity AMES test” value (salmonella typhimurium) was “negative”. The “bacterial reverse mutation test (Ames test) result” value (salmonella typhimurium) was “negative”, the “Genetic toxicity Chromosome abmormality test” value [4] was “negative” and the “chromosome aberration test result” value [4] was “negative”. The “Genetic toxicity Nucleus test” value (Micronucleus test) was “negative” and the micronucleus test result (Micronucleus test) was “negative”.
